The subject of data set [1] is male CF-1 mice. Briefly: Convulsions in mice, 5 min inhalation exposure to test compound in air. In kind it is in vivo, mouse (male CF-1). As to conditions: for ADDITIONAL REMARKS: type of convulsions and other effects: Table 1; for MOUSE CONVULSANT CONC., VOL. %: inhalation, 5 min. The protocol:
(§1) If anesthesia occurred, the median anesthetic concentration (AC50) was established. Another thirty mice were treated similarly to establish the median lethal concentration (LC50). The concentrations were calculated from the volume used and density of the test compound and the volume of air (6.3 l) in the test jar using the ideal gas law. The results for the convulsant ethers are given in Table 1; Tables 2 and 3 contain the results for related nonconvulsant ethers, most of which are good anesthetic agents.

The nature of the next data set: Stability to heat. In kind it is physicochemical. The procedure: which can be treated with about a 0.4 molar equivalent of bromine trifluoride at -5° C to give the ether V (See Examples 8 and 9).
In data set [2] the test system is male CF-1 mice. In words: Lethality in mice (median lethal concentration LC50). It is filed as in vivo, mouse (male CF-1). As to conditions: for MOUSE LC50: inhalation, 5 min. The protocol:
as §1

The next data set relates to dogs. In words: Convulsions / other effects in dogs. In kind it is in vivo, dog.
Data set [3] has as its system male CF-1 mice. In words: Anesthesia in mice (median anesthetic concentration AC50). In kind it is in vivo, mouse (male CF-1). As to conditions: inhalation, 5 min. The procedure: as §1
The test system of data set [4] is male CF-1 mice. As to conditions: footnote 5 (Krantz et al.); cited from earlier work.
Data set [5] has as its system male CF-1 mice. As to conditions: footnote 5 (Krantz et al.); cited from earlier work. This is another data set of the same source.
For data set [6] the following is noted: footnote 3 (Aldrich and Sheppard); cited from earlier work.
The test system of data set [7] is flurothyl induced convulsions. As to conditions: footnote 5 (Krantz et al.); cited from earlier work.

Entries after “also recorded” stand apart in the source; their conditions may differ. Where two headings read alike, the source gives them in different places.

Regarding `FC(F)OCC(F)(F)C(F)F` [I, Difluoromethyl 2,2,3,3-tetrafluoropropyl ether], in the data set with male CF-1 mice [1], the “ADDITIONAL REMARKS: type of convulsions and other effects” value (from here on “ADDITIONAL REMARKS: type”) is on record as “CLONIC CONVULSIONS”; the “MOUSE CONVULSANT CONC., VOL. %” value is 1.0 VOL. %. Also, the “stability to heat compared with V” value in “Stability to heat” is “more stable than V to heat”. The “MOUSE LC50” value with male CF-1 mice [2] came to 3.2 VOL. %.
On the same counts, the results for `FC(F)OCC(F)(F)C(F)(F)F` [II, Difluoromethyl 2,2,3,3,3-pentafluoropropyl ether] are “CLONIC AND TONIC CONVULSIONS; also recorded: CATALEPSY”, 1.4 VOL. %, “more stable than V to heat” and more than 4.2 VOL. %.
For `FC(F)OC(F)(F)C(F)C(F)(F)F` (stereo not shown) [III, Difluoromethyl 1,1,2,3,3,3-hexafluoropropyl ether], the “MOUSE CONVULSANT CONC., VOL. %” value in the data set on male CF-1 mice [1] was determined as 2.0 VOL. %. Also, the “stability to heat compared with V” value in “Stability to heat” is “more stable than V to heat”. Besides, the “MOUSE LC50” value in the data set with male CF-1 mice [2] is on record as more than 12 VOL. %.
Take `FC(F)OC(F)(C(F)F)C(F)F` [IV, Difluromethyl 1,1,2,3,3-pentafluoro-2-propyl ether]: in the data set on male CF-1 mice [1], the “ADDITIONAL REMARKS: type” value was “C[…] SEDATION”; the “MOUSE CONVULSANT CONC., VOL. %” value is 1.2 VOL. %. For the same compound, the “stability to heat compared with V” value in “Stability to heat” was “more stable than V to heat”. Moreover, the “ADDITIONAL REMARKS: convulsions in dogs” value in the data set with dogs was “OPI[…]. IN DOGS”. In addition, the “MOUSE LC50” value in the data set on male CF-1 mice [2] is 5.3 VOL. %.
Consider `FC(F)OC(F)C(F)(F)C(F)(F)F` (stereo not shown) [IX], for which the “MOUSE AC50 (median anesthetic concentration)” value (“MOUSE AC50” for short) in the data set with male CF-1 mice [3] stood at 4.3 VOL. %. For the same compound, the “MOUSE LC50” value in the data set with male CF-1 mice [2] is listed as more than 9.9 VOL. %.
For the compound `FCOCC(F)(F)C(F)(F)F` [V, Fluoromethyl 2,2,3,3,3-pentafluoropropyl ether], in the data set with male CF-1 mice [1], the “ADDITIONAL REMARKS: type” value is given as “METRAZOLE-LIKE CONVULSIONS”; the “MOUSE CONVULSANT CONC., VOL. %” value is 1.5 VOL. %. The “stability to heat in the presence of an alkaline material” value in the data set “Stability to heat” (e.g., soda lime) was “stable to 70 °C”. In addition, the stability to heat result in “Stability to heat” (upon distillation at 760 torr) is “unstable to heat and decomposed with the formation of hydrogen fluoride”. In addition, the “MOUSE LC50” value in the data set with male CF-1 mice [2] is listed as more than 3.0 VOL. %.
Turning to `FC(F)(F)COCC(F)(F)F` [VII, fluorothyl], the “ADDITIONAL REMARKS: type” value in the data set on male CF-1 mice [1] was “CLONIC AND TONIC CONVULSIONS”. Moreover, the “ADDITIONAL REMARKS: time of convulsions” value in the data set with male CF-1 mice [1] (clonic and tonic convulsions) is 30 s. For the same compound, the “MOUSE LC50” value with male CF-1 mice [4] is on record as less than 0.50 VOL. %. In addition, the “MOUSE CONVULSANT CONC., VOL. %” value with male CF-1 mice [5] is on record as not above 0.25 VOL. %.
Consider `FC(F)C(F)(F)COC(F)(F)F` [VI], for which the “MOUSE CONVULSANT CONC., VOL. %” value in the data set on male CF-1 mice [1] is reported as not above 0.5 VOL. %. Moreover, in data set [6], the “ADDITIONAL REMARKS: convulsions and death” value was “VIOLENT C[…] DEATH”; the “ADDITIONAL REMARKS: time of convulsions and death” value was 30 to 120 s. Moreover, in the data set with male CF-1 mice [2], the “MOUSE LC50” value is on record as not above 0.5 VOL. %.
In the case of `FCOC(F)(F)C(F)C(F)(F)F` (stereo not shown) [XIII], in the data set with male CF-1 mice [3], the “MOUSE AC50” value came to 2.1 VOL. %. Besides, the “MOUSE LC50” value with male CF-1 mice [2] is 6.4 VOL. %.
For the compound `FC(F)OC(C(F)F)C(F)F` [XII], the “MOUSE AC50” value in the data set with male CF-1 mice [3] was found to be 0.64 VOL. %. Besides, in the data set with male CF-1 mice [2], the “MOUSE LC50” value is on record as 3.8 VOL. %.
Regarding `FCOC(F)(C(F)F)C(F)(F)F` (stereo not shown) [XIV], the “MOUSE AC50” value in the data set on male CF-1 mice [3] was 2.5 VOL. %. Besides, the “ADDITIONAL REMARKS: convulsions in dogs” value in the data set with dogs was “NON[…] DOGS”. For the same compound, in the data set with male CF-1 mice [2], the “MOUSE LC50” value is 9.0 VOL. %.
For the compound `COCC(F)(F)C(F)(F)F` [XIX, methyl 2,2,3,3,3-pentafluoropropyl ether], the “MOUSE AC50” value in the data set with male CF-1 mice [3] came out at 11 VOL. %. The “MOUSE LC50” value with male CF-1 mice [2] stood at 16 VOL. %.
With `FC(F)OC(C(F)F)C(F)(F)F` (stereo not shown) [XI], in the data set with male CF-1 mice [3], the “MOUSE AC50” value worked out at 0.84 VOL. %. Moreover, the “MOUSE LC50” value in the data set on male CF-1 mice [2] is reported as 4.9 VOL. %.
For `COC(F)(F)C(F)C(F)(F)F` (stereo not shown) [XVIII, methyl 1,1,2,3,3,3-hexafluoropropyl ether], the “MOUSE AC50” value in the data set on male CF-1 mice [3] stood at 3.9 VOL. %. Further, the “MOUSE LC50” value in the data set with male CF-1 mice [2] is more than 8.0 VOL. %.
In the case of `COC(F)(F)C(F)(F)C(F)(F)F` [XVII], the “MOUSE LC50” value with male CF-1 mice [2] is recorded as 50 VOL. %. The “ADDITIONAL REMARKS: cause of death” value in the data set with male CF-1 mice [2] (mouse) is reported as “DEATH DUE TO ANOXIA”.
For the compound `FCOC(C(F)F)C(F)(F)F` (stereo not shown) [XVI], the “MOUSE AC50” value with male CF-1 mice [3] was 0.84 VOL. %. In addition, the “MOUSE LC50” value in the data set with male CF-1 mice [2] was determined as 5.1 VOL. %.
For the compound `FCOC(C(F)(F)F)C(F)(F)F` [XV], the “MOUSE AC50” value in the data set with male CF-1 mice [3] is reported as 1.4 VOL. %. The “ADDITIONAL REMARKS: convulsions in dogs” value in the data set with dogs is “NON[…] DOGS”. Further, the “MOUSE LC50” value in the data set with male CF-1 mice [2] worked out at 8.5 VOL. %.
For `COC(C(F)F)C(F)F` [XXIII], in the data set on male CF-1 mice [3], the “MOUSE AC50” value is given as 1.4 VOL. %. Besides, the “MOUSE LC50” value in the data set on male CF-1 mice [2] is more than 7.8 VOL. %.
As for `COC(C(F)F)C(F)(F)F` (stereo not shown) [XXII], the “MOUSE AC50” value in the data set on male CF-1 mice [3] turned out to be 1.5 VOL. %. For the same compound, the “MOUSE LC50” value with male CF-1 mice [2] is 6.9 VOL. %.
`COC(C(F)(F)F)C(F)(F)F` [XXI]: the “MOUSE AC50” value in the data set with male CF-1 mice [3] worked out at 2.2 VOL. %. Besides, the “ADDITIONAL REMARKS: convulsions in dogs” value with dogs was “NON[…] DOGS”. Also, in the data set on male CF-1 mice [2], the “MOUSE LC50” value was determined as 9.0 VOL. %. The “antagonist to flurothyl (induced convulsions)” value in data set [7] is “ANTAGONIST”.
`COCC(F)(F)C(F)F` [XX]: the “MOUSE AC50” value in the data set with male CF-1 mice [3] came to 2.5 VOL. %. Also, the “MOUSE LC50” value in the data set with male CF-1 mice [2] came out at 7.0 VOL. %.
As for `FC(F)OC(C(F)(F)F)C(F)(F)F` [X], the “MOUSE AC50” value in the data set with male CF-1 mice [3] is listed as 2.5 VOL. %. For the same compound, the “ADDITIONAL REMARKS: convulsions in dogs” value in the data set on dogs is “NON[…] DOGS”. In addition, in the data set on male CF-1 mice [2], the “MOUSE LC50” value is 12 VOL. %.

The values above are taken from patent publication US3976788A (priority 1974, dated 1976).
